Data taken from patent publication US11369593B2 (Texas Tech University System, priority 2017, dated 2022).

Tested on: PC12 cells
Assay: Etoposide-induced apoptosis in PC12 cells, cell viability
Type: cell-based
Conditions: etoposide-induced apoptosis, PC12 cells; for viability at 0.1 µM / viability at 0.3 µM / viability at 1 µM / viability at 3 µM / viability at 10 µM / viability at 30 µM: Rattus norvegicus, PC-12; for viability at 0.1 µM / % Viability 0.1 μM: 0.1 μM compound, vehicle 52.1 ± 7.32; for viability at 0.3 µM / % Viability 0.3 μM: 0.3 μM compound; for viability at 1 µM / % Viability 1 μM: 1 μM compound; for viability at 1 µM: read-out: % Viability 1 μM; for viability at 3 µM / % Viability 3 μM: 3 μM compound; for viability at 3 µM: read-out: % Viability 3 μM; for viability at 10 µM / % Viability 10 μM: 10 μM compound; for viability at 10 µM: read-out: % Viability 10 μM; for viability at 30 µM / % Viability 30 μM: 30 μM compound; for viability at 30 µM: read-out: % Viability 30 μM

Compound | viability at 0.1 µM | viability at 0.3 µM | viability at 1 µM | viability at 3 µM | viability at 10 µM | viability at 30 µM | % Viability 0.1 μM | % Viability 0.3 μM | % Viability 1 μM | % Viability 3 μM | % Viability 10 μM | % Viability 30 μM
CCOC(=O)Nc1ccc(NCc2ccc(C(F)(F)F)cc2)nc1 [AM-15-3, Ethyl (6-((4-(trifluoromethyl)benzyl)amino)pyridin-3-yl)carbamate] | 59.7 ± 6.74% | 54.1 ± 12.7% | 59 ± 12.9% | 64 ± 7.87% | 66.4 ± 4.11% | 52.9 ± 8.69% |  |  |  |  |  | 
CCOC(=O)Nc1ccc(N2CCOCC2)nc1N [JG-41-4, Ethyl (2-amino-6-morpholinopyridin-3-yl)carbamate] |  |  | 85.8 ± 15.5% | 88.7 ± 13.5% | 78.9 ± 14.3% | 63.9 ± 12.4% |  |  |  |  |  | 
Nc1nc(NCc2ccc(F)cc2)ccc1NC(=O)OCC(Cl)(Cl)Cl [NK-46-1, 2,2,2-trichloroethyl (2-amino-6-((4-fluorobenzyl)amino)pyridin-3-yl)carbamate] | 74.1 ± 9.21% | 108 ± 12.7% | 94.9 ± 8.18% | 77.2 ± 8.19% | 83.9 ± 18% | 113 ± 3.53% |  |  |  |  |  | 
CCOC(=O)Nc1ccc(NCc2ccc(-c3cccs3)cc2)nc1N [AM-11-3, Ethyl (2-amino-6-((4-(thiophen-2-yl)benzyl)amino)pyridin-3-yl)carbamate] | 64.1 ± 16.6% | 77.1 ± 25.2% | 89.8 ± 30.1% | 76.1 ± 12.8% | 89 ± 29.1% | 35.3 ± 5.69% |  |  |  |  |  | 
CCOC(=O)Nc1ccc(OCc2ccc(C(F)(F)F)cc2)nc1N [NK-60-3, Ethyl (2-amino-6-((4-(trifluoromethyl)benzyl)oxy)pyridin-3-yl)carbamate] | 64 ± 11% | 83.8 ± 11.5% | 77.1 ± 7.31% | 69.9 ± 8.54% | 71.4 ± 19.6% | 77 ± 6.87% |  |  |  |  |  | 
Nc1nc(NCc2ccccc2C(F)(F)F)ccc1NC(=O)OCC(Cl)(Cl)Cl [JG-35-4, 2,2,2-trichloroethyl (2-amino-6-((2-(trifluoromethyl)benzyl)amino)pyridin-3-yl)carbamate] |  |  | 92.2 ± 37.2% | 108 ± 7.32% | 93.2 ± 21.6% | 71.6 ± 20.8% |  |  |  |  |  | 
CCOC(=O)Nc1ccc(NCc2cccc(C)c2)nc1N [NK-66-3, Ethyl (2-amino-6-((3-methylbenzyl)amino)pyridin-3-yl)carbamate] | 94.7 ± 25.8% | 110 ± 11.3% | 101 ± 17.4% | 82.3 ± 31.4% | 86.1 ± 26.9% | 107 ± 9.4% |  |  |  |  |  | 
CCOC(=O)Nc1ccc(NCc2ccccc2C(F)(F)F)nc1N [JG-34-4, Ethyl (2-amino-6-((2-(trifluoromethyl)benzyl)amino)pyridin-3-yl)carbamate] | 74.6 ± 2.18% | 72.4 ± 16.4% | 95.1 ± 10.3% | 91.5 ± 12.9% | 95.4 ± 19.3% | 77.7 ± 6.86% |  |  |  |  |  | 
CCOC(=O)Nc1ccc(NCc2ccc(-c3ccccc3)cc2)nc1N [NK-57-3, Ethyl (6-(([1,1′-biphenyl]-4-ylmethyl)amino)-2-aminopyridin-3-yl)carbamate] | 55.4 ± 14.8% | 61.7 ± 12.7% | 63.7 ± 10.1% | 48.9 ± 9.58% | 53.1 ± 14% | 62.3 ± 10.3% |  |  |  |  |  | 
Nc1nc(NCc2ccc(F)cc2)ccc1NC(=O)OCC1c2ccccc2-c2ccccc21 [NK-43-1, (9H-fluoren-9-yl)methyl (2-amino-6-((4-fluorobenzyl)amino)pyridin-3-yl)carbamate] | 67.5 ± 6.34% | 63.9 ± 6.2% | 69 ± 10.3% | 56.4 ± 8.99% | 66.7 ± 5.97% | 49.7 ± 1.76% |  |  |  |  |  | 
CC(C)(C)OC(=O)Nc1ccc(NCc2ccc(F)cc2)nc1N [NK-13-1, tert-butyl 6-(4-fluorobenzylamino)-2-aminopyridin-3-ylcarbamate] | 53.5 ± 9.17% | 47.6 ± 3.19% | 57.2 ± 13.6% | 42.2 ± 6.03% | 68.1 ± 21.6% | 64.4 ± 12.8% |  |  |  |  |  | 
CCOC(=O)Nc1ccc(NCc2cc(F)cc(C(F)(F)F)c2)nc1N [JG-38-4, Ethyl (2-amino-6-((3-fluoro-5-(trifluoromethyl)benzyl)amino)pyridin-3-yl)carbamate] | 69 ± 13.6% | 64.7 ± 12.5% | 69.7 ± 14.9% | 72.9 ± 13.2% | 90.1 ± 15.1% | 78.2 ± 12.5% |  |  |  |  |  | 
CCOC(=O)Nc1ccc(NCc2ccc(F)cc2F)nc1N [NK-64-3, Ethyl (2-amino-6-((2,4-difluorobenzyl)amino)pyridin-3-yl)carbamate] | 84 ± 21.9% | 93 ± 14.1% | 91 ± 19.8% | 78 ± 16.8% | 89.2 ± 4.4% | 90.7 ± 12.7% |  |  |  |  |  | 
CCOC(=O)Nc1ccc(NCc2ccccc2)nc1N [AM-2-3, Ethyl (2-amino-6-(benzylamino)pyridin-3-yl)carbamate] | 83.2 ± 21.9% | 87.5 ± 1.65% | 93.5 ± 5.31% | 78.6 ± 10.8% | 92.2 ± 3.97% | 88.8 ± 5.02% |  |  |  |  |  | 
CCOC(=O)Nc1ccc(NCc2ccc(C)cc2C)nc1N [NK-65-3, Ethyl (2-amino-6-((2,4-dimethylbenzyl)amino)pyridin-3-yl)carbamate] | 55.5 ± 11.3% | 56.9 ± 18.4% | 61.8 ± 9.82% | 87.9 ± 11.4% | 85.7 ± 13.2% | 65.7 ± 19% |  |  |  |  |  | 
Cc1ccc(OC(=O)Nc2ccc(NCc3ccc(F)cc3)cc2N)cc1 [JG-48-6, p-tolyl (2-amino-4-((4-fluorobenzyl)amino)phenyl)carbamate] |  |  | 70 ± 16.1% | 91.6 ± 11% | 83.7 ± 2.26% | 67.5 ± 10.2% |  |  |  |  |  | 
CCCCCCOC(=O)Nc1ccc(NCc2ccc(F)cc2)cc1N [NK-34-2, Hexyl (2-amino-4-((4-fluorobenzyl)amino)phenyl)carbamate] | 63 ± 11.8% | 61 ± 5.7% | 65.8 ± 6.14% | 60.1 ± 11.4% | 72.1 ± 13.4% | 73.2 ± 4.74% |  |  |  |  |  | 
CCOC(=O)Nc1ccc(NCc2ccc(SC(F)(F)F)cc2)nc1N [AM-8-3, Ethyl (2-amino-6-((4-((trifluoromethyl)thio)benzyl)amino)pyridin-3-yl)carbamate] | 69 ± 9.99% | 92.6 ± 9.23% | 82.3 ± 7.02% | 79.2 ± 23.6% | 89.1 ± 2.16% | 110 ± 15.3% |  |  |  |  |  | 
CCOC(=O)Nc1ccc(NCCc2ccccc2)nc1N [JG-36-4, Ethyl (2-amino-6-(phenethylamino)pyridin-3-yl)carbamate] | 52.1 ± 11.5% | 56.9 ± 12% | 69.2 ± 7.1% | 50 ± 9.09% | 59.6 ± 9.05% | 60.5 ± 5.82% |  |  |  |  |  | 
C#CCOC(=O)Nc1ccc(NCc2ccc(F)cc2)nc1N [NK-45-1, Prop-2-yn-1-yl (2-amino-6-((4-fluorobenzyl)amino)pyridin-3-yl)carbamate] | 60.4 ± 1.29% | 57.5 ± 3.95% | 64.9 ± 11.7% | 61.9 ± 9.82% | 65.4 ± 10.7% | 64.8 ± 3.9% |  |  |  |  |  | 
Nc1nc(NCc2ccc(F)cc2)ccc1NC(=O)Oc1ccccc1 [NK-41-1, Phenyl (2-amino-6-((4-fluorobenzyl)amino)pyridin-3-yl)carbamate] | 57.5 ± 3.62% | 53.4 ± 0.8% | 58.1 ± 2.08% | 59 ± 6.87% | 68.9 ± 7.71% | 70.3 ± 10.6% |  |  |  |  |  | 
CCOC(=O)Nc1ccc(NCc2ccc3ccccc3c2)nc1N [AM-5-3, Ethyl (2-amino-6-((naphthalen-2-ylmethyl)amino)pyridin-3-yl)carbamate] | 70.5 ± 24.2% | 76.9 ± 20.8% | 81.7 ± 12.6% | 57.6 ± 6.35% | 65.1 ± 22.6% | 103 ± 1.31% |  |  |  |  |  | 
CCOC(=O)Nc1ccc(NCc2ccc(F)cc2)nc1 [NK-31-3] |  |  | 109 ± 35.9% | 110 ± 19.4% | 101 ± 15.9% | 69.3 ± 14.9% |  |  |  |  |  | 
CCOC(=O)Nc1ccc(NCc2cccc(OC)c2)nc1N [NK-67-3, Ethyl (2-amino-6-((3-methoxybenzyl)amino)pyridin-3-yl)carbamate] | 59.2 ± 3.98% | 48.6 ± 9.49% | 82.8 ± 19.8% | 87.5 ± 15% | 70.1 ± 3.36% | 63.8 ± 14% |  |  |  |  |  | 
CCOC(=O)Nc1ccc(NCc2ccc(OC)cc2)nc1N [AM-4-3, Ethyl (2-amino-6-((4-methoxybenzyl)amino)pyridin-3-yl)carbamate] | 86.8 ± 3.14% | 81.4 ± 13% | 71.8 ± 25.7% | 79.7 ± 10.6% | 90 ± 16.3% | 106 ± 13.3% |  |  |  |  |  | 
Ethyl (6-((4-fluorobenzyl)amino)-4-methylpyridin-3-yl)carbamate [NK-48-3] |  |  |  |  |  |  | 54.78 ± 2.77% | 57.46 ± 4.02% | 57.03 ± 1.81% | 53.80 ± 1.98% | 57.06 ± 4.28% | 63.25 ± 3.32%
Hexyl (2-amino-6-((4-fluorobenzyl)amino)pyridin-3-yl)carbamate [NK-42-1] |  |  |  |  |  |  | 60.08 ± 3.34% | 59.19 ± 4.95% | 87.30 ± 18.26% | 78.46 ± 11.29% | 85.14 ± 11.29% | 78.95 ± 13.17%
